Source: patent US12077503B2, “Substituted cyclic amides and their use as herbicides” (FMC CORPORATION, priority 2015, dated 2024)

Key:
Assay type in all cases: in vivo
[1] = system: barnyardgrass (Echinochloa crus-galli); experiment: Test G Pre-Emergence Protocol; details: Echinochloa crus-galli, pre-emergence, 312 h, evaluated after 13 days; for pest or weed control at 15.625 g/ha: 15.625 g ai/ha, read-out: Barnyard grass damage rating (100=total damage to plant; 0=no damage to plant); for pest or weed control at 62.5 g/ha: 62.5 g ai/ha, 100=total damage to plant, 0=no damage to plant, read-out: plant damage rating, Barnyardgrass; for pest or weed control at 250 g/ha: 250 g ai/ha, read-out: Barnyardgrass damage rating (100=total damage to plant; 0=no damage to plant)
Outline: (§1)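 Pre-emergence spray, 15.625/62.5/250 g/ha, vehicle acetone:water 50:50 + 0.5% Tween 20, applied 1 d after sowing. Glasshouse 24/16° C, 14 h light, 65% RH, watered twice daily. Visual damage rating at 13 d, 0–100 scale.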

corn (Zea mays) [2] = experiment: Test G Pre-Emergence Protocol; details: Zea mays, pre-emergence, 312 h, evaluated after 13 days; for plant injury at 15.625 g/ha: 15.625 g ai/ha; for plant injury at 15.625 g/ha / plant injury at 250 g/ha: read-out: Corn damage rating (100=total damage to plant; 0=no damage to plant); for plant injury at 62.5 g/ha: 62.5 g ai/ha, 100=total damage to plant, 0=no damage to plant, read-out: plant damage rating, Corn; for plant injury at 250 g/ha: 250 g ai/ha
Outline: as §1

[3] = system: giant foxtail (Setaria faberi); experiment: Test G Pre-Emergence Protocol; details: Setaria faberi, pre-emergence, 312 h, evaluated after 13 days; for pest or weed control at 15.625 g/ha: 15.625 g ai/ha; for pest or weed control at 15.625 g/ha / pest or weed control at 250 g/ha: read-out: Foxtail, Giant damage rating (100=total damage to plant; 0=no damage to plant); for pest or weed control at 62.5 g/ha: 62.5 g ai/ha, 100=total damage to plant, 0=no damage to plant, read-out: plant damage rating, Foxtail, Giant; for pest or weed control at 250 g/ha: 250 g ai/ha
Outline: as §1

[4] = system: ivy-leaved morning glory (Ipomoea hederacea); experiment: Test G Pre-Emergence Protocol; details: Ipomoea, pre-emergence, 312 h, evaluated after 13 days; for pest or weed control at 15.625 g/ha: 15.625 g ai/ha, read-out: Morning-glory, Ivy-leaved damage rating (100=total damage to plant; 0=no damage to plant); for pest or weed control at 62.5 g/ha: 62.5 g ai/ha, 100=total damage to plant, 0=no damage to plant, read-out: plant damage rating, Morningglory, Ivy-leaved; for pest or weed control at 250 g/ha: 250 g ai/ha, read-out: Morningglory, Ivy-leaved damage rating (100=total damage to plant; 0=no damage to plant)
Outline: as §1

[5] = system: redroot pigweed (Amaranthus retroflexus); experiment: Test G Pre-Emergence Protocol; details: Amaranthus retroflexus, pre-emergence, 312 h, evaluated after 13 days; for pest or weed control at 15.625 g/ha: 15.625 g ai/ha; for pest or weed control at 15.625 g/ha / pest or weed control at 250 g/ha: read-out: Pigweed, Redroot damage rating (100=total damage to plant; 0=no damage to plant); for pest or weed control at 62.5 g/ha: 62.5 g ai/ha, 100=total damage to plant, 0=no damage to plant, read-out: plant damage rating, Pigweed, Redroot; for pest or weed control at 250 g/ha: 250 g ai/ha
Outline: as §1

[6] = system: velvetleaf (Abutilon theophrasti); experiment: Test G Pre-Emergence Protocol; details: Abutilon theophrasti, pre-emergence, 312 h, evaluated after 13 days; for pest or weed control at 15.625 g/ha: 15.625 g ai/ha; for pest or weed control at 15.625 g/ha / pest or weed control at 250 g/ha: read-out: Velvetleaf damage rating (100=total damage to plant; 0=no damage to plant); for pest or weed control at 62.5 g/ha: 62.5 g ai/ha, 100=total damage to plant, 0=no damage to plant, read-out: plant damage rating, Velvetleaf; for pest or weed control at 250 g/ha: 250 g ai/ha
Outline: as §1

[7] = system: barnyardgrass (Echinochloa crus-galli); experiment: Test G Post-Emergence Protocol; details: Echinochloa crus-galli, post-emergence, 312 h; for pest or weed control at 15.625 g/ha: 15.625 g ai/ha, evaluated after 13 days (100=total damage to plant; 0=no damage to plant), read-out: Barnyardgrass damage rating; for pest or weed control at 62.5 g/ha: 62.5 g ai/ha, read-out: Barnyardgrass damage rating (100=total damage to plant; 0=no damage to plant); for pest or weed control at 62.5 g/ha / pest or weed control at 250 g/ha: evaluated after 13 days; for pest or weed control at 250 g/ha: 250 g ai/ha, read-out: damage to plant, Barnyardgrass (100=total damage to plant; 0=no damage to plant)
Outline: (§2)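 Seedlings grown 8 days in soil in a glasshouse (24/16 °C day/night, 14 h light, 65% humidity) were sprayed post-emergence with compound in acetone/water 50:50 plus 0.5% Tween 20 at 15.625, 62.5 or 250 g/ha. Damage was scored after 13 days on a 0–100 scale (100 = total damage).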

corn (Zea mays) [8] = experiment: Test G Post-Emergence Protocol; details: Zea mays, post-emergence, 312 h; for plant injury at 15.625 g/ha: 15.625 g ai/ha, evaluated after 13 days (100=total damage to plant; 0=no damage to plant), read-out: Corn damage rating; for plant injury at 62.5 g/ha: 62.5 g ai/ha, read-out: Corn damage rating (100=total damage to plant; 0=no damage to plant); for plant injury at 62.5 g/ha / plant injury at 250 g/ha: evaluated after 13 days; for plant injury at 250 g/ha: 250 g ai/ha, read-out: damage to plant, Corn (100=total damage to plant; 0=no damage to plant)
Outline: as §2

[9] = system: giant foxtail (Setaria faberi); experiment: Test G Post-Emergence Protocol; details: Setaria faberi, post-emergence, 312 h; for pest or weed control at 15.625 g/ha: 15.625 g ai/ha, evaluated after 13 days (100=total damage to plant; 0=no damage to plant), read-out: Foxtail, Giant damage rating; for pest or weed control at 62.5 g/ha: 62.5 g ai/ha, read-out: Foxtail, Giant damage rating (100=total damage to plant; 0=no damage to plant); for pest or weed control at 62.5 g/ha / pest or weed control at 250 g/ha: evaluated after 13 days; for pest or weed control at 250 g/ha: 250 g ai/ha, read-out: damage to plant, Foxtail, Giant (100=total damage to plant; 0=no damage to plant)
Outline: as §2

[10] = system: ivy-leaved morning glory (Ipomoea hederacea); experiment: Test G Post-Emergence Protocol; details: Ipomoea, post-emergence, 312 h; for pest or weed control at 15.625 g/ha: 15.625 g ai/ha, evaluated after 13 days (100=total damage to plant; 0=no damage to plant), read-out: Morningglory, Ivy-leaved damage rating; for pest or weed control at 62.5 g/ha: 62.5 g ai/ha, read-out: Morningglory, Ivy-leaved damage rating (100=total damage to plant; 0=no damage to plant); for pest or weed control at 62.5 g/ha / pest or weed control at 250 g/ha: evaluated after 13 days; for pest or weed control at 250 g/ha: 250 g ai/ha, read-out: damage to plant, Morningglory, Ivy-leaved (100=total damage to plant; 0=no damage to plant)
Outline: as §2

[11] = system: redroot pigweed (Amaranthus retroflexus); experiment: Test G Post-Emergence Protocol; details: Amaranthus retroflexus, post-emergence, 312 h; for pest or weed control at 15.625 g/ha: 15.625 g ai/ha, evaluated after 13 days (100=total damage to plant; 0=no damage to plant), read-out: Pigweed, Redroot damage rating; for pest or weed control at 62.5 g/ha: 62.5 g ai/ha, read-out: Pigweed, Redroot damage rating (100=total damage to plant; 0=no damage to plant); for pest or weed control at 62.5 g/ha / pest or weed control at 250 g/ha: evaluated after 13 days; for pest or weed control at 250 g/ha: 250 g ai/ha, read-out: damage to plant, Pigweed, Redroot (100=total damage to plant; 0=no damage to plant)
Outline: as §2

[12] = system: velvetleaf (Abutilon theophrasti); experiment: Test G Post-Emergence Protocol; details: Abutilon theophrasti, post-emergence, 312 h; for pest or weed control at 15.625 g/ha: 15.625 g ai/ha, evaluated after 13 days (100=total damage to plant; 0=no damage to plant), read-out: Velvetleaf damage rating; for pest or weed control at 62.5 g/ha: 62.5 g ai/ha, read-out: Velvetleaf damage rating (100=total damage to plant; 0=no damage to plant); for pest or weed control at 62.5 g/ha / pest or weed control at 250 g/ha: evaluated after 13 days; for pest or weed control at 250 g/ha: 250 g ai/ha, read-out: damage to plant, Velvetleaf (100=total damage to plant; 0=no damage to plant)
Outline: as §2

Structure (SMILES)	pest or weed control at 15.625 g/ha [1]	pest or weed control at 62.5 g/ha [1]	pest or weed control at 250 g/ha [1]	plant injury at 15.625 g/ha (corn (Zea mays) [2])	plant injury at 62.5 g/ha (corn (Zea mays) [2])	plant injury at 250 g/ha (corn (Zea mays) [2])	pest or weed control at 15.625 g/ha [3]	pest or weed control at 62.5 g/ha [3]	pest or weed control at 250 g/ha [3]	pest or weed control at 15.625 g/ha [4]	pest or weed control at 62.5 g/ha [4]	pest or weed control at 250 g/ha [4]	pest or weed control at 15.625 g/ha [5]	pest or weed control at 62.5 g/ha [5]	pest or weed control at 250 g/ha [5]	pest or weed control at 15.625 g/ha [6]	pest or weed control at 62.5 g/ha [6]	pest or weed control at 250 g/ha [6]	pest or weed control at 15.625 g/ha [7]	pest or weed control at 62.5 g/ha [7]	further results
COc1c(Cl)ccc([C@H]2CNC(=O)[C@@H]2C(=O)Nc2cccc(F)c2F)c1F (racemic) [Compound 1472]	10%	40%	80%	0%	0%	20%	10%	50%	80%	0%	0%	0%	0%	0%	0%	0%	0%	0%	10%	30%	pest or weed control at 250 g/ha [7]: 50%; plant injury at 15.625 g/ha (corn (Zea mays) [8]): 10%; plant injury at 62.5 g/ha (corn (Zea mays) [8]): 20%; plant injury at 250 g/ha (corn (Zea mays) [8]): 40%; pest or weed control at 15.625 g/ha [9]: 10%; pest or weed control at 62.5 g/ha [9]: 50%; pest or weed control at 250 g/ha [9]: 70%; pest or weed control at 15.625 g/ha [10]: 20%; pest or weed control at 62.5 g/ha [10]: 20%; pest or weed control at 250 g/ha [10]: 20%; pest or weed control at 15.625 g/ha [11]: 0%; pest or weed control at 62.5 g/ha [11]: 10%; pest or weed control at 250 g/ha [11]: 10%; pest or weed control at 15.625 g/ha [12]: 0%; pest or weed control at 62.5 g/ha [12]: 10%; pest or weed control at 250 g/ha [12]: 10%
CN1C[C@H](c2ccc(C(F)(F)F)cc2)[C@@H](C(=O)Nc2ccc(F)cc2S(C)(=O)=O)C1=O (racemic) [Compound 1483]	40%	40%	70%	30%	20%	40%	30%	60%	80%	0%	0%	0%	20%	40%	80%	0%	0%	0%	30%	40%	pest or weed control at 250 g/ha [7]: 70%; plant injury at 15.625 g/ha (corn (Zea mays) [8]): 20%; plant injury at 62.5 g/ha (corn (Zea mays) [8]): 30%; plant injury at 250 g/ha (corn (Zea mays) [8]): 50%; pest or weed control at 15.625 g/ha [9]: 30%; pest or weed control at 62.5 g/ha [9]: 60%; pest or weed control at 250 g/ha [9]: 70%; pest or weed control at 15.625 g/ha [10]: 0%; pest or weed control at 62.5 g/ha [10]: 0%; pest or weed control at 250 g/ha [10]: 0%; pest or weed control at 15.625 g/ha [11]: 40%; pest or weed control at 62.5 g/ha [11]: 30%; pest or weed control at 250 g/ha [11]: 60%; pest or weed control at 15.625 g/ha [12]: 10%; pest or weed control at 62.5 g/ha [12]: 10%; pest or weed control at 250 g/ha [12]: 30%
